Measured values as given in the supplement of paper PMC10290057.
Where a name gives a salt, the structure may show the parent alone.

Tests used:
HCT116 [1] = assay: efficacy (fitted maximal change in viability relative to DMSO control); higher = less cytotoxic (negative = loss of viability); details: 48 h
HCT116 [2] = assay: AC50 cell viability (CellTiter-Glo); higher = less potent; details: 48 h
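For AC50 cell viability (CellTiter-Glo) in this document: HCT116 colorectal carcinoma cells screened at five concentrations per compound, luminescent viability scaled between DMSO wells and empty wells on each plate, curves fitted per compound.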
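For efficacy (fitted maximal change in viability relative to DMSO control) in this document: Luminescence-based viability readout, five doses per compound, normalized against on-plate DMSO and empty-well controls, followed by dose-response curve fitting for every drug.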

| Structure (SMILES) | efficacy (HCT116 [1]) [%] | AC50 cell viability (HCT116 [2]) [µM] |
| --- | --- | --- |
| CN(C)C(=O)C(CCN1CCC(O)(c2ccc(Cl)cc2)CC1)(c1ccccc1)c1ccccc1 [Loperamide hydrochloride] | -98.7 | 18.6 |
| Cc1nc(-c2cn3c(n2)-c2ccc(-c4cnn(C(C)(C)C(N)=O)c4)cc2OCC3)n(C(C)C)n1 [Taselisib (GDC-0032)] | -77.1 | 5.9 |
| COC1=CC(=CC=C1)C2=CC=C(NC(=O)/C3=C(/CCC3)C(O)=O)C(=C2)F [Vidofludimus] | -50.2 | 5.25 |
| CC(C)c1cc(CNc2nc(Nc3cc(C4CC4)[nH]n3)cc(N3CCN(C)CC3)n2)on1 [XL-228] | -64 | 0.295 |
| CN[C@@H]1C[C@H]2O[C@@](C)([C@@H]1OC)n1c3ccccc3c3c4c(c5c6ccccc6n2c5c31)C(=O)NC4 [Staurosporine] | -89.4 | 0.0468 |
| CC(C)(O)[C@H]1CC[C@H](Nc2ccc3ncc(-c4cccc(C(F)(F)F)c4)n3n2)CC1 [TP-3654] | -43.7 | 1.66 |
| Cc1cc(CN2CCN(c3c(Br)cnc4[nH]c(-c5ccc(N6CCN(C)CC6)cc5)nc34)CC2)no1 | -119 | 5.25 |
| CN1CCN(CC1)\C2=N\C3=C(NC4=C2C=CC=C4)C=CC(=C3)Cl [Clozapine] | -99.6 | 20.9 |
| CCNC1(C(N)=O)CCN(c2ncnc3c2nc(-c2ccccc2Cl)n3-c2ccc(Cl)cc2)CC1 [Otenabant] | -97.3 | 23.5 |
| O=C(/C=C/c1cccnc1)NCCCCC1CCN(C(=O)c2ccccc2)CC1 [Daporinad] | -94.1 | 0.00525 |
| COc1ccc(F)c(F)c1C(=O)c1cnc(NC2CCN([S+](C)(=O)[O-])CC2)nc1N [R-547] | -67.8 | 0.417 |
| NC(=O)c1ccccc1Nc1ccnc(Nc2cccc(O)c2)n1 | -95.9 | 5.9 |
| Cc1nc(NC(=O)N2CCC[C@H]2C(N)=O)sc1-c1ccnc(C(C)(C)C(F)(F)F)c1 [Alpelisib] | -64.3 | 14.8 |
| C/C1=C/C[C@@H](/C(C)=C/c2csc(C)n2)OC(=O)C[C@H](O)C(C)(C)C(=O)[C@H](C)[C@@H](O)[C@@H](C)CCC1 [Epothilone D] | -60.3 | 0.0166 |
| CN(C(=O)CNC(=O)/C=C/c1cccc(Cl)c1)C1CC[S+](=O)([O-])CC1 (stereo not drawn) [ML264] | -92.4 | 0.742 |
| OC[C@H]1O[C@@H]2[C@@H](OC\3=N\C(=N)\C=C/[N@@]23)[C@@H]1O [Cyclocytidine hydrochloride] | -59.3 | 0.186 |
| C=C1C(=O)O[C@H]2C[C@H](C)C(/C=C/C(C)=O)=CC[C@H]12 [Xanthatin] | -76 | 2.63 |
| O=C(NCc1ccc([S+](=O)([O-])c2cccc(C(F)(F)F)c2)cc1)c1cnc2[nH]ncc2c1 [GNE-618] | -90.4 | 0.0166 |
| CCOC\1=C(/C(=O)NC2=CC=C(OC3=C(Cl)C(=NC=C3)N)C(=C2)F)C(=O)N(\C=C1)C4=CC=C(F)C=C4 | -67.3 | 18.6 |
| CCCN(CCC)C(=O)C\1=C\C2=CC=C(C=C2\N=C(N)/C1)C3=CC=C(C=C3)C(=O)N4CCCC4 [Motolimod] | -45.8 | 18.6 |
| Cc1ccc(-c2cc(C(F)(F)F)nn2-c2ccc([S+](N)(=O)[O-])cc2)cc1 [Celecoxib] | -77.8 | 18.6 |
| NC1CCC(N[C@@H]2C[C@H]2c2ccccc2)CC1 (stereo partly drawn) [ORY-1001] | -36 | 16.6 |
| CN(c1ncccc1CNc1nc(Nc2ccc3c(c2)CC(=O)N3)ncc1C(F)(F)F)[S+](C)(=O)[O-] | -62.3 | 2.63 |
| CCn1c(-c2nonc2N)nc2cnc(Oc3cccc(NC(=O)c4ccc(OCCN5CCOCC5)cc4)c3)cc21 | -79.2 | 10.5 |
| COc1cc2c(cc1-c1c(C)noc1C)ncc1[nH]c(=O)n([C@H](C)c3ccccn3)c12 [I-BET151] | -77.4 | 1.32 |
| N#Cc1ccc2c(c1)CN([S+](=O)([O-])c1cccs1)[C@H](Cc1ccccc1)CN2Cc1cnc[nH]1 | -73.3 | 0.417 |
| Nc1nc2cc(-c3ccc4ncc(C(=O)N5CCOCC5)n4c3)ccc2o1 [Serabelisib] | -53.2 | 4.68 |
| CCc1ccc(N(CC(C)C)[S+](=O)([O-])c2ccc(OCC3CCOCC3)c(CO)c2)cc1 | -83.5 | 23.5 |
| CCN1C(=O)C\N=C/2N\C=C(/N=C12)C3=C(C)N=C(C=C3)C4=NN=C[NH]4 [CC-115] | -71 | 7.42 |
